US20230210834A1, “RNA METHYLTRANSFERASE INHIBITOR, SCREENING METHOD THEREFOR, ANTI-CANCER AGENT EFFICACY ASSESSMENT MARKER, AND KIT FOR EFFECTIVELY PREDICTING FTSJ1 INHIBITOR” (National University Corporation Okayama University, priority 2019, published 2023)

Columns and labels:
[1] = Body weight in the anti-tumor effect evaluation test; format: in vivo, immunodeficient mice (BALB/c-nu/nu); details: 20 mg/kg intraperitoneally every other day
Method: A cell suspension (1×10^6 cells/100 μL), in which triple-negative breast cancer cell line MDA-MB-231 was suspended in phosphate buffer (PBS, produced by FUJIFILM Wako Pure Chemical Corporation), was inoculated subcutaneously in the dorsal lumbar region of immunodeficient mice (BALB/c-nu/nu, female, 6 weeks old, purchased from Shimizu Laboratory Supplies Co., Ltd.) using a syringe with a 23 G injection needle (Terumo Corporation). After confirming that the cancer cells engrafted under the skin of the mice to form tumor tissues, and that the tumor volume reached 100 mm^3, the obtained tumor model mice were used for the following evaluation test. First, each compound for evaluation was dissolved in corn oil (produced by Sigma-Aldrich Co., LLC) and administered intraperitoneally. PVZF0024 was administered at 100 mg/kg and PVZF2001 was administered at 20 mg/kg to the tumor model mice every other day. At each administration, the tumor diameter was measured with a caliper. The tumor volume was calculated according to the following formula: V=(3.14×D×d^2)/6 (wherein V is the tumor volume, D is the tumor major axis, and d is the tumor minor axis) (Wu. et al., Clin. Cancer Res., 2013 Oct. 15; 19(20): 5699-5710).
FIGS. 1 and 2 show the antitumor effects of PVZF0024 and PVZF2001.

MGG18 = assay: Sphere-forming ability (anchorage-independent cell proliferation), MGG18; format: cell-based, human; details: MGG18 (high FTSJ1 expression), 1 week, 0-5000 nM; FIG. 4B
Method: To verify whether the expression analysis of these gene clusters contributes to predicting the anti-cancer effect by the FTSJ1 inhibitors, the FTSJ1 gene was actually used as an example to analyze the anti-cancer effect of the FTSJ1 inhibitor PVZF2001 on human malignant brain tumor cell lines. Human malignant brain tumor cell lines MGG4, MGG8, MGG18, MGG23 were treated with stem cell medium (Neurobasal, B-27, N-2, 20 ng/mL EGF, 20 ng/mL bFGF) containing different concentrations (0 nm, 200 nM, 500 nM, 1000 NM, 2000 NM, 5000 nM) of PVZF2001 for 1 week, and anchorage-independent cell proliferation was evaluated based on sphere-forming ability.

CC(C)c1cc(C(C)C)c(S(=O)(=O)CC2CC(C)(C)CC(C)(C)C2)c(C(C)C)c1 [PVZF2001]
weight loss due to administration [1]: no weight loss due to administration was observed | anchorage-independent cell proliferation (sphere-forming ability) (MGG18): showed proliferation inhibition at low concentrations
